Assay results taken from the supplement of paper PMC8633005.

Key:
Experiment in all cases: drug sensitivity score (DSS) (DSS (unitless, 0-50 scale)); higher = more sensitive (stronger viability inhibition); extreme values may be limits of the assay
Details in all cases: 72 h; culture: 2D
WM165 = tested on: WM165
In short: (§1)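 Patient-derived melanoma cultures and melanoma cell lines were grown in 2D in 384-well plates with a 527-compound oncology library at five concentrations spanning a 10,000-fold range, with 1000–1500 cells per well for the cultures. CellTiter-Glo luminescence gave viability after 72 h at 37 °C. The drug sensitivity score is a modified area-under-curve measure derived from dose-response curves fitted in the in-house Breeze software.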

WM852 = tested on: WM852
In short: as §1

SK-MEL-28 = tested on: SK-MEL-28
In short: as §1

SK-MEL-2 = tested on: SK-MEL-2
In short: as §1

FM-MEL-3 = tested on: FM-MEL-3
In short: as §1

Bowes = tested on: Bowes
In short: as §1

FM-MEL-6 = tested on: FM-MEL-6
In short: as §1

FM-MEL-2 = tested on: FM-MEL-2
In short: as §1

`Cc1c(C(=O)Nc2ccc(N3C[C@@H](C)O[C@@H](C)C3)nc2)cccc1-c1ccc(OC(F)(F)F)cc1` [Sonidegib] showed a drug sensitivity score (WM165) of 0.2, a drug sensitivity score (WM852) of 2.5 and a drug sensitivity score (SK-MEL-28) of 0. The drug sensitivity score (SK-MEL-2) was 0, the drug sensitivity score (FM-MEL-3) was 4.1 and the drug sensitivity score (Bowes) was 4.1. For the same compound, the drug sensitivity score (FM-MEL-6) was 0.1 and the drug sensitivity score (FM-MEL-2) was 1.5.
`C=CCN(/C=C1/C(=O)O[C@H](COC)[C@@]2(C)C1=C(O)C(=O)C1=C2[C@H](OC(C)=O)C[C@]2(C)C(=O)CC[C@@H]12)CC=C` [Sonolisib] gave a drug sensitivity score (WM165) of 0, a drug sensitivity score (WM852) of 0 and a drug sensitivity score (SK-MEL-28) of 0. For the same compound, the drug sensitivity score (SK-MEL-2) was 0, the drug sensitivity score (FM-MEL-3) was 0 and the drug sensitivity score (Bowes) was 0. It also gave a drug sensitivity score (FM-MEL-6) of 0 and a drug sensitivity score (FM-MEL-2) of 0.
`CNC(=O)c1cc(Oc2ccc(NC(=O)Nc3ccc(Cl)c(C(F)(F)F)c3)cc2)ccn1` [Sorafenib] was tested, and the drug sensitivity score (WM165) was 0, the drug sensitivity score (WM852) was 0 and the drug sensitivity score (SK-MEL-28) was 0. The drug sensitivity score (SK-MEL-2) was 0, the drug sensitivity score (FM-MEL-3) was 1.4 and the drug sensitivity score (Bowes) was 0. The drug sensitivity score (FM-MEL-6) was 0 and the drug sensitivity score (FM-MEL-2) was 1.
Compound `CN1CCN(c2nc(C3=C(c4c[nH]c5ccccc45)C(=O)NC3=O)c3ccccc3n2)CC1` [Sotrastaurin] has a drug sensitivity score (WM165) of 0, a drug sensitivity score (WM852) of 0 and a drug sensitivity score (SK-MEL-28) of 0. The drug sensitivity score (SK-MEL-2) was 0, the drug sensitivity score (FM-MEL-3) was 0.3 and the drug sensitivity score (Bowes) was 0. It also gave a drug sensitivity score (FM-MEL-6) of 3.7 and a drug sensitivity score (FM-MEL-2) of 3.2.
`C=CC(=O)Nc1cccc(Nc2nc(Nc3ccc(OCCOC)cc3)ncc2F)c1` [Spebrutinib] showed a drug sensitivity score (WM165) of 1.1, a drug sensitivity score (WM852) of 0.9 and a drug sensitivity score (SK-MEL-28) of 0.7. The drug sensitivity score (SK-MEL-2) was 0, the drug sensitivity score (FM-MEL-3) was 1 and the drug sensitivity score (Bowes) was 2.1. It also gave a drug sensitivity score (FM-MEL-6) of 1 and a drug sensitivity score (FM-MEL-2) of 0.9.
With `CC(C)n1cnc2c(NCCc3ccc(O)cc3)nc(-c3csc4ccccc34)nc21` [StemRegenin 1] the drug sensitivity score (WM165) was 2.5, the drug sensitivity score (WM852) was 1.3 and the drug sensitivity score (SK-MEL-28) was 0. The drug sensitivity score (SK-MEL-2) was 0, the drug sensitivity score (FM-MEL-3) was 3.4 and the drug sensitivity score (Bowes) was 1.1. The drug sensitivity score (FM-MEL-6) was 3.6 and the drug sensitivity score (FM-MEL-2) was 1.5.
In the case of `CCN(CC)CCNC(=O)c1c(C)[nH]c(/C=C2\C(=O)Nc3ccc(F)cc32)c1C` [Sunitinib], the drug sensitivity score (WM165) is reported as 0.8, the drug sensitivity score (WM852) is reported as 0 and the drug sensitivity score (SK-MEL-28) is reported as 0. For the same compound, the drug sensitivity score (SK-MEL-2) was 0, the drug sensitivity score (FM-MEL-3) was 0 and the drug sensitivity score (Bowes) was 0. It also gave a drug sensitivity score (FM-MEL-6) of 0 and a drug sensitivity score (FM-MEL-2) of 0.
In the case of `CC(C)(O)CC(=O)NCCn1ccc2ncnc(Nc3ccc(Oc4cccc(C(F)(F)F)c4)c(Cl)c3)c21` [TAK-285], the drug sensitivity score (WM165) is reported as 0, the drug sensitivity score (WM852) is reported as 0 and the drug sensitivity score (SK-MEL-28) is reported as 0. For the same compound, the drug sensitivity score (SK-MEL-2) was 0, the drug sensitivity score (FM-MEL-3) was 0 and the drug sensitivity score (Bowes) was 1.4. For the same compound, the drug sensitivity score (FM-MEL-6) was 0 and the drug sensitivity score (FM-MEL-2) was 0.
`CCS(=O)(=O)c1cccc(-c2cc(C(=O)NC3CCN(C)CC3)c(C)c3[nH]c4ncc(C)cc4c23)c1` [TAK-901] gave a drug sensitivity score (WM165) of 9.4, a drug sensitivity score (WM852) of 4 and a drug sensitivity score (SK-MEL-28) of 4.1. The drug sensitivity score (SK-MEL-2) was 2.4, the drug sensitivity score (FM-MEL-3) was 1.9 and the drug sensitivity score (Bowes) was 7.3. It also gave a drug sensitivity score (FM-MEL-6) of 1.9 and a drug sensitivity score (FM-MEL-2) of 0.9.
`Cc1cccc(-c2[nH]c(CNc3ccccc3F)nc2-c2ccc3ncnn3c2)n1` [TEW-7197] was tested, and the drug sensitivity score (WM165) was 0, the drug sensitivity score (WM852) was 0 and the drug sensitivity score (SK-MEL-28) was 0. For the same compound, the drug sensitivity score (SK-MEL-2) was 0, the drug sensitivity score (FM-MEL-3) was 0 and the drug sensitivity score (Bowes) was 0. For the same compound, the drug sensitivity score (FM-MEL-6) was 0 and the drug sensitivity score (FM-MEL-2) was 0.7.
